Test results reported in ChEMBL document CHEMBL1149728, “11-oxoaerothionin: a cytotoxic antitumor bromotyrosine-derived alkaloid from the Caribbean marine sponge Aplysina lacunosa” (J Nat Prod, 1992).
Converted amounts (≈) assume the structure as drawn.

Key:
Staphylococcus aureus = test: Antimicrobial activity against Staphylococcus aureus; format: functional
Pseudomonas aeruginosa = test: Antimicrobial activity against Pseudomonas aeruginosa; format: functional
HCT-116 = test: Cytotoxicity against human HCT116 cells; format: functional, cell-based
CCRF-CEM = test: Cytotoxicity against human CCRF-CEM cells; format: functional, cell-based
SK-MEL-5 = test: Cytotoxicity against human SK-MEL-5 cells; format: functional, cell-based
Escherichia coli = test: Antimicrobial activity against Escherichia coli; format: functional
MCF7 = test: Cytotoxicity against human MCF7 cells; format: functional, cell-based

## COC1=C(Br)[C@@H](O)[C@]2(C=C1Br)CC(C(=O)NCCC(=O)CNC(=O)C1=NO[C@]3(C=C(Br)C(OC)=C(Br)[C@@H]3O)C1)=NO2
Staphylococcus aureus
  MIC: 30 µg/mL (≈ 36.1 µM)
Pseudomonas aeruginosa
  MIC: 30 µg/mL (≈ 36.1 µM)
HCT-116
  IC50: 10 µg/mL (≈ 12 µM)
CCRF-CEM
  IC50: 3.5 µg/mL (≈ 4.21 µM)
SK-MEL-5
  IC50: 10 µg/mL (≈ 12 µM)
Escherichia coli
  MIC: 10 µg/mL (≈ 12 µM)
MCF7
  IC50: 20 µg/mL (≈ 24 µM)
